In patent EP0895988B1, “Arylsulfonylamino hydroxamic acid derivatives” (Pfizer Products Inc., priority 1997, dated 1999):
Values joined by “and” are separate entries in the source; they are usually repeats but may differ in a detail not shown here. Equal entries are not always repeated.

How the values were obtained:
[1] = molecular target: Human recombinant MMP-13 (Homo sapiens, UniProt P45452); assay: Inhibition of MMP-13; format: biochemical; conditions: fluorogenic substrate Dnp-Pro-Cha-Gly-Cys(Me)-His-Ala-Lys(NMA)-NH2; repeated determinations
Procedure: Human recombinant MMP-13 is activated with 2mM APMA (p-aminophenyl mercuric acetate) for 1.5 hours, at 37°C and is diluted to […] in assay buffer (50 mM Tris, pH 7.5, 200 mM sodium chloride, 5mM calcium chloride, […], 0.02% brij). Twenty-five microliters of diluted enzyme is added per well of a 96 well microfluor plate. The enzyme is then diluted in a 1:4 ratio in the assay by the addition of inhibitor and substrate to give a final concentration in the assay of […].
10 mM stock solutions of inhibitors are made up in dimethyl sulfoxide and then diluted in assay buffer as per the inhibitor dilution scheme for inhibition of human collagenase (MMP-1): Twenty-five microliters of each concentration is added in triplicate to the microfluor plate. The final concentrations in the assay are 30 mM, 3mM, 0.3 mM, and 0.03 mM.
Substrate (Dnp-Pro-Cha-Gly-Cys(Me)-His-Ala-Lys(NMA)-NH2) is prepared as for inhibition of human collagenase (MMP-1) and […] is added to each well to give a final assay concentration of […]. Fluorescence readings (360 nm excitation; 450 emission) are taken at time 0 and every 5 minutes for 1 hour.
Positive controls consist of enzyme and substrate with no inhibitor and blanks consist of substrate only.
IC50's are determined as per inhibition of human collagenase (MMP-1). If IC50's are reported to be less than […], inhibitors are then assayed at final concentrations of 0.3 mM, 0.03 mM, 0.003 mM and 0.0003 mM.

[2] = molecular target: T1, Human recombinant collagenase (MMP-1) (Homo sapiens, UniProt P03956); assay: Inhibition of Human Collagenase (MMP-1); format: biochemical; conditions: fluorogenic substrate DNP-Pro-Cha-Gly-Cys(Me)-His-Ala-Lys(NMA)-NH2; room temperature; repeated determinations
T1 sequence (P03956 100-469): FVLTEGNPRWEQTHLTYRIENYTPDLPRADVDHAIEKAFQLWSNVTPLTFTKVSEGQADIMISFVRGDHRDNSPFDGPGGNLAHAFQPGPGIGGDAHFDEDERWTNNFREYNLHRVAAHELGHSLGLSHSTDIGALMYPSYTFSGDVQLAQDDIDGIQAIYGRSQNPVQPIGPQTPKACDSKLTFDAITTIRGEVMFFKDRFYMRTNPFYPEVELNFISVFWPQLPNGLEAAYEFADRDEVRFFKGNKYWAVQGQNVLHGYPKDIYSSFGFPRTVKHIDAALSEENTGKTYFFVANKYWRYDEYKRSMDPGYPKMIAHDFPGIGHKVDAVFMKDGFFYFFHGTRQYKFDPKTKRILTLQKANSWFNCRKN
Procedure: Human recombinant collagenase is activated with trypsin using the following ratio: […] of collagenase. The trypsin and collagenase are incubated at room temperature for 10 minutes then a five fold excess (50 mg/10 mg trypsin) of soybean trypsin inhibitor is added.
10 mM stock solutions of inhibitors are made up in dimethyl sulfoxide and then diluted using the following Scheme: 10 mM → 120 µm → 12 µM → 1.2 µM → 0.12 µM [formula]
Twenty-five microliters of each concentration is then added in triplicate to appropriate wells of a 96 well microfluor plate. The final concentration of inhibitor will be a 1:4 dilution after addition of enzyme and substrate. Positive controls (enzyme, no inhibitor) are set up in wells D1-D6 and blanks (no enzyme, no inhibitors) are set in wells D7-D12.
Collagenase is diluted to 400 ng/ml and […] is then added to appropriate wells of the microfluor plate. Final concentration of collagenase in the assay is 100 ng/ml.
Substrate (DNP-Pro-Cha-Gly-Cys(Me)-His-Ala-Lys(NMA)-NH2) is made as a 5 mM stock in dimethyl sulfoxide and then diluted to […] in assay buffer. The assay is initiated by the addition of […] substrate per well of the microfluor plate to give a final concentration of […].
Fluorescence readings (360 nm excitation, 460 nm emission) were taken at time 0 and then at 20 minute intervals. The assay is conducted at room temperature with a typical assay time of 3 hours.
Fluorescence vs time is then plotted for both the blank and collagenase containing samples (data from triplicate determinations is averaged). […] The zero time is used as a blank for each compound at each concentration and these values are subtracted from the 120 minute data. Data is plotted as inhibitor concentration vs % control (inhibitor fluorescence divided by fluorescence of collagenase alone x 100). IC50's are determined from the concentration of inhibitor that gives a signal that is 50% of the control.
If IC50's are reported to be <0.03 mM then the inhibitors are assayed at concentrations of 0.3 mM, 0.03 mM, […].

SMILES	IC50 [1]	IC50 [2]
O=C(O)CCN(C1(C(=O)NO)CCCC1)S(=O)(=O)c1ccc(-c2ccc(F)cc2)cc1 [Example 2, 3-[(4'-FLUOROBIPHENYL-4-SULFONYL)-(1-HYDROXYCARBAMOYLCYCLO-PENTYL)AMINO]PROPIONIC ACID]	1.7 nM and 3.5 nM and 2 nM	195 nM and 300 nM and 200 nM
COC(=O)CCN(C1(C(=O)NO)CCCC1)S(=O)(=O)c1ccc(-c2ccc(F)cc2)cc1 [Example 1, 3-[(4'-FLUOROBIPHENYL-4-SULFONYL)-(1-HYDROXYCARBAMOYLCYCLO-PENTYL)AMINO]PROPIONIC ACID METHYL ESTER]	10 nM and 12 nM	80 nM and 145 nM
CCOC(=O)CCN(C(C)(C)C(=O)NO)S(=O)(=O)c1ccc(-c2ccc(F)cc2)cc1 [Example 3, 3-{(4'-FLUOROBIPHENYL-4-SULFONYL)-(1-HYDROXYCARBAMOYL-1-METHYL-ETHYL)AMINO]-PROPIONIC ACID ETHYL ESTER]	20 nM and 17 nM	4000 nM and 1300 nM
CC(C)(C(=O)NO)N(CCC(=O)O)S(=O)(=O)c1ccc(-c2ccc(F)cc2)cc1 [Example 4, 3-[(4'-FLUOROBIPHENYL-4-SULFONYL)-(1-HYDROXYCARBAMOYL-1-METHYL-ETHYL)AMINO]PROPIONIC ACID]	52 nM	800 nM
